Here are results for 31 compounds from patent US8883792B2, “Substituted isoquinoline derivative” (D. Western Therapeutics Institute, Inc., priority 2010, dated 2014).

Where a name gives a salt, the structure may show the parent alone.

The test system of the assay is rabbits (New Zealand White). Description: Ocular hypotensive effect in rabbits. The settings on record: male New Zealand White rabbits, 0.04 mL eye drop, concentration of 1% (w/v) or lower, maximum ocular hypotensive rate vs vehicle-treated contralateral eye. Type of assay: in vivo, rabbit. As to the method:
The compound of the present invention was administered to rabbits (New Zealand White, sex: male, 3 to 6 per group) and evaluated for its ocular hypotensive effect.
Each test compound was dissolved in a vehicle 1 (1.04 g of sodium dihydrogen phosphate dihydrate and 0.5 g of sodium chloride dissolved in purified water and then adjusted to pH 7.0 with sodium hydroxide to make the total amount to 100 mL) or a vehicle 2 (2% (w/v) aqueous boric acid solution) to prepare a test compound solution with a predetermined concentration.
The intraocular pressures of the rabbits were measured using Tiolat TonoVet handheld tonometer immediately before administration of test compound. The test compound solution and the vehicle were dropped at a volume of 0.04 mL to one eye and the contralateral eye, respectively, and the intraocular pressures were measured over time in the same way as above. The rate of the intraocular pressure of the eye receiving the test compound solution to that of the eye receiving the vehicle was calculated as an ocular hypotensive rate.
Turning to `Cc1ncsc1CCNC[C@@H](C)NS(=O)(=O)c1ccc2cnccc2c1` [Example 79, (R)—N-[1-{2-(4-methylthiazol-5-yl)ethylamino}propan-2-yl]isoquinoline-6-sulfonamide dihydrochloride], the Ocular hypotensive activity result was “++ (maximum ocular hypotensive rate of 15% or more)”.

For `CC(C)CCNC[C@@H](C)NS(=O)(=O)c1ccc2cnccc2c1.Cl` [Example 21, (R)—N-{1-(isopentylamino)propan-2-yl}isoquinoline-6-sulfonamide hydrochloride], the Ocular hypotensive activity entry is “+ (maximum ocular hypotensive rate of 5% or more and less than 15%)”.

On to `CNC[C@@H](C)NS(=O)(=O)c1ccc2cnccc2c1` [Example 2, (R)—N-{1-(methylamino)propan-2-yl}isoquinoline-6-sulfonamide dihydrochloride], for which the Ocular hypotensive activity result was “++ (maximum ocular hypotensive rate of 15% or more)”.

Turning to `C[C@H](CNCC(O)c1cccc(Cl)c1)NS(=O)(=O)c1ccc2cnccc2c1` (stereo partly drawn) [Example 91, N-[(2R)-1-{2-(3-chlorophenyl)-2-hydroxyethylamino}propan-2-yl]isoquinoline-6-sulfonamide dihydrochloride], the Ocular hypotensive activity result is reported as “++ (maximum ocular hypotensive rate of 15% or more)”.

With `C[C@@H](NS(=O)(=O)c1ccc2cnccc2c1)[C@@H](N)CCCc1ccccc1` [Example 117, N-{(2R,3S)-3-amino-6-phenylhexan-2-yl)isoquinoline-6-sulfonamide hydrochloride], the Ocular hypotensive activity entry is listed as “++ (maximum ocular hypotensive rate of 15% or more)”.

Take `CCCCCCNC[C@@H](C)NS(=O)(=O)c1ccc2cnccc2c1` [Example 22, (R)—N-{1-(hexylamino)propan-2-yl}isoquinoline-6-sulfonamide dihydrochloride]: the Ocular hypotensive activity result is given as “++ (maximum ocular hypotensive rate of 15% or more)”.

Consider `C[C@H](CNCCc1ccccc1)NS(=O)(=O)c1ccc2c(O)nccc2c1.Cl` [Example 110, (R)—N-{1-(phenethylamino)propan-2-yl}-1-hydroxyisoquinoline-6-sulfonamide hydrochloride], for which the Ocular hypotensive activity entry is listed as “++ (maximum ocular hypotensive rate of 15% or more)”.

Regarding `Cl.O=S(=O)(NCCNCCc1ccccc1)c1ccc2cnccc2c1` [Example 32, N-{2-(phenethylamino)ethyl}isoquinoline-6-sulfonamide hydrochloride], the Ocular hypotensive activity result is given as “++ (maximum ocular hypotensive rate of 15% or more)”.

Turning to `C[C@H](CN(C)CCc1ccccc1)NS(=O)(=O)c1ccc2cnccc2c1` [Example 99, (R)—N-[1-{methyl(phenethyl)amino}propan-2-yl]isoquinoline-6-sulfonamide dihydrochloride], the Ocular hypotensive activity entry is recorded as “++ (maximum ocular hypotensive rate of 15% or more)”.

As for `C[C@H](CC(N)CCc1ccccc1)NS(=O)(=O)c1ccc2cnccc2c1` (single isomer, unassigned; diastereomer a) [Example 118], the Ocular hypotensive activity entry is recorded as “++ (maximum ocular hypotensive rate of 15% or more)”.

As for `C[C@H](CNCCc1cc2ccccc2o1)NS(=O)(=O)c1ccc2cnccc2c1` [Example 75, (R)—N-[1-{(2-(benzofuran-2-yl)ethylamino}propan-2-yl]isoquinoline-6-sulfonamidedihydrochloride], the Ocular hypotensive activity entry is recorded as “++ (maximum ocular hypotensive rate of 15% or more)”.

With `C[C@H](CNCCc1cccs1)NS(=O)(=O)c1ccc2cnccc2c1.Cl` [Example 40, (R)—N-[1-{2-(thiophen-2-yl)ethylamino}propan-2-yl]isoquinoline-6-sulfonamide hydrochloride], the Ocular hypotensive activity entry is “++ (maximum ocular hypotensive rate of 15% or more)”.

`CCCCN[C@H](C)CNS(=O)(=O)c1ccc2cnccc2c1` [Example 11, (R)—N-{2-(butylamino)propyl}isoquinoline-6-sulfonamide dihydrochloride]: the Ocular hypotensive activity entry was “+ (maximum ocular hypotensive rate of 5% or more and less than 15%)”.

`C[C@H](CNC1CCCCC1)NS(=O)(=O)c1ccc2cnccc2c1.Cl` [Example 61, (R)—N-{1-(cyclohexylamino)propan-2-yl}isoquinoline-6-sulfonamide hydrochloride]: the Ocular hypotensive activity result was “++ (maximum ocular hypotensive rate of 15% or more)”.

With `C[C@H](CNCc1ccccc1)NS(=O)(=O)c1ccc2cnccc2c1` [Example 1, (R)—N-{1-(benzylamino)propan-2-yl}isoquinoline-6-sulfonamide dihydrochloride], the Ocular hypotensive activity result is given as “++ (maximum ocular hypotensive rate of 15% or more)”.

For the compound `C[C@H](CNCCc1c[nH]c2ccc(Cl)cc12)NS(=O)(=O)c1ccc2cnccc2c1.Cl` [Example 63, (R)—N-[1-{2-(5-chloro-1H-indol-3-yl)ethylamino}propan-2-yl]isoquinoline-6-sulfonamide hydrochloride], the Ocular hypotensive activity entry is “+ (maximum ocular hypotensive rate of 5% or more and less than 15%)”.

For `C=CCNCCNS(=O)(=O)c1ccc2cnccc2c1` [Example 10, N-{2-(allylamino)ethyl}isoquinoline-6-sulfonamide dihydrochloride], the Ocular hypotensive activity entry is on record as “++ (maximum ocular hypotensive rate of 15% or more)”.

For `C[C@H](CNCCc1cn(C)c2ccccc12)NS(=O)(=O)c1ccc2cnccc2c1.Cl` [Example 64, (R)—N-[1-{2-(1-methyl-1H-indol-3-yl)ethylamino}propan-2-yl]isoquinoline-6-sulfonamide hydrochloride], the Ocular hypotensive activity result is given as “++ (maximum ocular hypotensive rate of 15% or more)”.

For the compound `C[C@H](CNCCc1ccsc1)NS(=O)(=O)c1ccc2cnccc2c1.Cl` [Example 41, (R)—N-[1-{2-(thiophen-3-yl)ethylamino}propan-2-yl]isoquinoline-6-sulfonamide hydrochloride], the Ocular hypotensive activity result is recorded as “++ (maximum ocular hypotensive rate of 15% or more)”.

For `C[C@H](CNCCCc1c[nH]c2ccccc12)NS(=O)(=O)c1ccc2cnccc2c1` [Example 80, (R)—N-[1-{3-(1H-indol-3-yl)propylamino}propan-2-yl]isoquinoline-6-sulfonamide dihydrochloride], the Ocular hypotensive activity result was “++ (maximum ocular hypotensive rate of 15% or more)”.

With `C[C@H](CNCCc1ccccc1)N(CCO)S(=O)(=O)c1ccc2cnccc2c1` [Example 97, (R)—N-(2-hydroxyethyl)-N-{1-(phenethylamino)propan-2-yl}isoquinoline-6-sulfonamide dihydrochloride], the Ocular hypotensive activity entry is recorded as “++ (maximum ocular hypotensive rate of 15% or more)”.

Turning to `CCCCCNC[C@@H](C)NS(=O)(=O)c1ccc2cnccc2c1` [Example 19, (R)—N-{1-(pentylamino)propan-2-yl}isoquinoline-6-sulfonamide dihydrochloride], the Ocular hypotensive activity result is “++ (maximum ocular hypotensive rate of 15% or more)”.

`C[C@H](CNC1Cc2ccccc2C1)NS(=O)(=O)c1ccc2cnccc2c1.Cl` [Example 62, (R)—N-{1-(2,3-dihydro-1H-inden-2-ylamino)propan-2-yl}isoquinoline-6-sulfonamide hydrochloride]: the Ocular hypotensive activity result is recorded as “++ (maximum ocular hypotensive rate of 15% or more)”.

Turning to `C[C@H](CNCCc1ccco1)NS(=O)(=O)c1ccc2cnccc2c1.Cl` [Example 66, (R)—N-[1-{2-(furan-2-yl)ethylamino}propan-2-yl]isoquinoline-6-sulfonamide hydrochloride], the Ocular hypotensive activity entry is reported as “++ (maximum ocular hypotensive rate of 15% or more)”.

With `C[C@H](CNCCc1cccc2ccccc12)NS(=O)(=O)c1ccc2cnccc2c1.Cl` [Example 46], the Ocular hypotensive activity result is recorded as “++ (maximum ocular hypotensive rate of 15% or more)”.

Regarding `C[C@H](CNCCc1cccc(F)c1)NS(=O)(=O)c1ccc2cnccc2c1.Cl` [Example 52, (R)—N-{1-(3-fluorophenethylamino)propan-2-yl}isoquinoline-6-sulfonamide hydrochloride], the Ocular hypotensive activity result is recorded as “++ (maximum ocular hypotensive rate of 15% or more)”.

In the case of `C[C@H](CNCCc1ccc(F)cc1)NS(=O)(=O)c1ccc2cnccc2c1Br.Cl` [Example 77, (R)-5-bromo-N-{1-(4-fluorophenethylamino)propan-2-yl}-isoquinoline-6-sulfonamide hydrochloride], the Ocular hypotensive activity entry was “+ (maximum ocular hypotensive rate of 5% or more and less than 15%)”.

`C[C@H](CNCCc1ccccc1)NS(=O)(=O)c1ccc2c(SCCN)nccc2c1` [Example 111, (R)-1-(2-aminoethylthio)-N-{1-(phenethylamino)propan-2-yl}isoquinoline-6-sulfonamide trihydrochloride]: the Ocular hypotensive activity entry is “+ (maximum ocular hypotensive rate of 5% or more and less than 15%)”.

`COc1ccccc1CCNC[C@@H](C)NS(=O)(=O)c1ccc2cnccc2c1` [Example 28, (R)—N-{1-(2-methoxyphenethylamino)propan-2-yl}isoquinoline-6-sulfonamide dihydrochloride]: the Ocular hypotensive activity result is given as “++ (maximum ocular hypotensive rate of 15% or more)”.

Regarding `C[C@H](CNCCc1ccccc1)NS(=O)(=O)c1ccc2cncc(-c3ccsc3)c2c1` [Example 115, (R)—N-{1-(phenethylamino)propan-2-yl}-4-(thiophen-3-yl) isoquinoline-6-sulfonamide dihydrochloride], the Ocular hypotensive activity result is “++ (maximum ocular hypotensive rate of 15% or more)”.

Turning to `C[C@H](CNCC(C)(O)c1ccccc1)NS(=O)(=O)c1ccc2cnccc2c1.Cl` (stereo partly drawn) [Example 85, N-{(2R)-1-(2-hydroxy-2-phenylpropylamino)propan-2-yl}isoquinoline-6-sulfonamide hydrochloride], the Ocular hypotensive activity entry is “++ (maximum ocular hypotensive rate of 15% or more)”.
